# Measurements: paper PMC6155272, “Chroman-4-One Derivatives Targeting Pteridine Reductase 1 and Showing Anti-Parasitic Activity” (Molecules : A Journal of Synthetic Chemistry and Natural …, 2017)
# B1: Trypanosoma brucei pteridine reductase 1 (enzyme)
# chain: MEAPAAVVTGAAKRIGRAIAVKLHQTGYRVVIHYHNSAEAAVSLADELNKERSNTAVVCQADLTNSNVLPASCEEIINSCFRAFGRCDVLVNNASAFYPTPLVQGDHEDNSNGKTVETQVAELIGTNAIAPFLLTMSFAQRQKGTNPNCTSSNLSIVNLCDAMVDQPCMAFSLYNMGKHALVGLTQSAALELAPYGIRVNGVAPGVSLLPVAMGEEEKDKWRRKVPLGRREASAEQIADAVIFLVSGSAQYITGSIIKVDGGLSLVHA
# modifications: oxo-cysteine at residue 168
# notes: pteridine reductase 1 (PTR1) of Trypanosoma brucei; Crystallised with the cofactor NADP+ and soaked with compound 1 (small molecules); also called TbPTR1; PTR1; source: expressed and purified as reported in literature [14]
# B2: Leishmania major pteridine reductase 1 (enzyme)
# chain: MTAPTVPVALVTGAAKRLGRSIAEGLHAEGYAVCLHYHRSAAEANALSATLNARRPNSAITVQADLSNVATAPVSGADGSAPVTLFTRCAELVAACYTHWGRCDVLVNNASSFYPTPLLRNDEDGHEPCVGDREAMETATADLFGSNAIAPYFLIKAFAHRFAGTPAKHRGTNYSIINMVDAMTNQPLLGYTIYTMAKGALEGLTRSAALELAPLQIRVNGVGPGLSVLVDDMPPAVWEGHRSKVPLYQRDSSAAEVSDVVIFLCSSKAKYITGTCVKVDGGYSLTRA
# notes: pteridine reductase 1 (PTR1) of Leishmania major; Crystallised with NADPH/NADP+ and soaked with compound 1 or 3 (small molecules); also called LmPTR1; PTR1; source: expressed and purified as reported in literature [14]
# Key:
# [1] = tested on: T. brucei bloodstream forms; test: Activity against T. brucei bloodstream forms (resazurin-based assay); assay type: cell-based, Trypanosoma brucei; conditions: Trypanosoma brucei; read-out: IC50 (reference compound for T. brucei)
# Protocol: The efficacy of compounds against T. brucei bloodstream forms was evaluated using a modified resazurin-based assay previously described in literature.
# [2] = target: T1, Leishmania major pteridine reductase 1 (LmPTR1) (Leishmania major, UniProt Q01782); test: LmPTR1 enzyme reporter assay (cytochrome-c reduction, 550 nm); assay type: biochemical; conditions: read-out: % Inhibition LmPTR1 (50 μM)
# T1 construct: made in house
# T1 sequence (Q01782 1-288): B2 chain
# Protocol: (§1) TbPTR1 and LmPTR1 were purified as reported in literature. The enzyme kinetic profile of each selected protein was characterized by a spectrophotometric assay. The experimental assay consists of enzyme kinetic reaction monitoring at 340 nm for a total time of 180 s. The enzyme kinetic activity was measured at steady-state concentration of 7,8-dihydro-L-biopterin (H2B) and NADPH substrates equal to 50 and 120 µM and varying the enzyme concentration in the 0.001–0.006 µM and 0.005–0.010–0.015–0.020–0.025–0.030 µM range for Lm- and TbPTR1, respectively. The resulting kcat values were equal to 0.68 (s^−1) and 7.2 (s^−1) for Tb- and LmPTR1, respectively. For both TbPTR1 and LmPTR1, the Km value evaluation assay for H2B- and NADPH-substrates was performed in the 0.3-0.6–0.9–1.2–2.4–4.8 µM and 3.0–6.0–12.0–40.0–90.0–190.0 µM concentrations range, respectively.
# (§2) Compounds 1A–3A were evaluated as reported in our previous paper. The novel synthesized compounds 1–3 were tested towards TbPTR1 and LmPTR1 using the in vitro TbPTR1/LmPTR1 enzyme reporter assay. The experimental procedure consists of monitoring the non-enzymatic reduction reaction of cytochrome-c at 550 nm, related to the reduction reaction of H2B to tetrahydrobiopterin (H4B) by using NADPH as the cofactor. TbPTR1 and LmPTR1 enzyme activity was assayed in a buffer containing 20 mM sodium citrate (pH 6.0) in a final experimental volume equal to 600 µL. The final reaction mixture contained different substrates added in the following order: TbPTR1/LmPTR1 (0.018 µM/0.002 µM) in 20 mM Tris-HCl, glycerol 10% (v/v), pH 7.5; H2B at a final concentration equal to 0.3 µM; cytochrome-c (80 µM); Milli-Q water to a final volume of 600 µL and NADPH to a final concentration of 500 µM. Before the addition of NADPH, the reaction mixture was incubated for 10 min at 30 °C and 80 RPM. To allow the starting of the reaction, NADPH was added and the enzyme reaction was detected for a total time of 10 min at 30 °C, 550 nm. The inhibition profile characterization of compounds 1–3 was performed with a DU-640 spectrophotometer (Beckman Coulter, Brea, CA, USA). Each compound was assayed in duplicate against Tb/LmPTR1 target enzymes in the 0–10–25–50–80–150 µM concentrations range. At the different concentration values, the compounds were added to the reaction mixture (enzyme, H2B, cytochrome-c in 20 mM sodium citrate buffer and Milli-Q water) and incubated for 10 min at 30 °C, 80 RPM. The reaction was initiated by the addition of NADPH (500 µM) and monitored for 10 min at 30 °C, 550 nm. The absorbance values were processed by software analysis and transformed into the corresponding slopes. The percentages of inhibition and the IC50 values were determined.
# [3] = target: T2, Trypanosoma brucei pteridine reductase 1 (TbPTR1) (Trypanosoma brucei brucei, UniProt O76290); test: TbPTR1 enzyme reporter assay (cytochrome-c reduction, 550 nm); assay type: biochemical; conditions: read-out: % Inhibition TbPTR1 (50 μM), 50 μM; compounds 1–3 and control
# T2 construct: made in house
# T2 sequence (O76290 1-268): B1 chain
# Protocol: as §1, §2
# [4] = target: T2, Trypanosoma brucei pteridine reductase 1 (TbPTR1); conditions: flavonols 1A–3A, cited from earlier work; for IC50: evaluated as in previous paper
# [5] = target: T1, Leishmania major pteridine reductase 1 (LmPTR1); conditions: flavonols 1A–3A, cited from earlier work; for IC50: evaluated as in previous paper
# [6] = tested on: L. infantum (MHOM/BR/1972/BH46) intracellular amastigotes; test: Activity against L. infantum intramacrophage amastigotes (high-content imaging); assay type: cell-based, Leishmania infantum; conditions: Leishmania infantum; read-out: IC50 (reference compound for L. infantum)
# Protocol: […] THP-1 cells were plated onto 384-well plates in Roswell Park Memorial Institute (RPMI) 1640 medium, Hyclone, GE Healthcare Life Sciences (Issaquah, WA, USA) containing 50 ng/mL phorbol 12-myristate 13-acetate (PMA, Sigma-Aldrich, Saint Louis, MS, USA), and incubated for 48 h. Then, 6 day-old promastigotes were added, at a ratio of 50 parasites per each THP-1 cell seeded earlier. After 24 h of infection, negative controls (0.5% DMSO), positive controls (10 μM amphotericin B) or compounds were added to the plate. Assay plates were incubated for 48 h, and then fixed with 4% paraformaldehyde and stained with Draq 5. The Operetta high-content automated imaging system was used to acquire images and the Harmony Software was optimized to quantify the host cell number, the infection ratio and the number of parasites per infected cell. The ratio between infected cells and total number of cells is then calculated, and defined as the Infection Ratio (IR). The raw data for IR values was normalized to negative—DMSO (mock)-treated infected cells—and positive (non-infected cells) controls to determine the normalized antiparasitic activity.
# [7] = target: the molecule itself; test: crystal structure; TbPTR1-NADP+-compound 1 ternary complex; sitting drop, room temperature, 1.5-2.5 M sodium acetate, 0.1 M sodium citrate pH 5.0; compound soaked into pre-formed crystals; one homotetramer in the asymmetric unit
# [8] = target: the molecule itself; test: crystal structure; LmPTR1-NADP+ ternary complexes with compound 1 and with compound 3; hanging drop, 293 K, 12% PEG 4600, 100 mM sodium acetate pH 5.5, 120-160 mM calcium acetate; compounds soaked into pre-formed crystals; one homotetramer in the asymmetric unit
molecule,measurement,setting,value
"N=C(N)c1ccc(OCCCCCOc2ccc(C(=N)N)cc2)cc1 [pentamidine, reference compound]",IC50,[1],1.55 ± 0.24 nM
"CCc1nc(N)nc(N)c1-c1ccc(Cl)cc1 [pyrimethamine, reference compound]",inhibition at 50 µM,[2],100%
same,inhibition at 50 µM,[3],100%
O=c1c(O)c(-c2ccc(O)cc2)oc2ccc(O)cc12 [Compound 2A],% Inhibition TbPTR1 (50 μM),[4],2.6%
same,% Inhibition LmPTR1 (50 μM),[5],10.8%
"CCCCCCCCCCCCCCCCOP(=O)([O-])OCC[N+](C)(C)C [miltefosine, reference compound]",IC50,[6],2650 ± 400 nM
O=c1c(O)c(-c2ccc(O)c(O)c2)oc2ccc(O)cc12 [Compound 3A],% Inhibition TbPTR1 (50 μM),[4],53.1%
same,IC50,[4],38 µM
same,% Inhibition LmPTR1 (50 μM),[5],75.4%
same,IC50,[5],35 µM
O=c1c(O)c(-c2cccc(O)c2)oc2ccc(O)cc12 [Compound 1A],% Inhibition TbPTR1 (50 μM),[4],96.1%
same,IC50,[4],4.3 µM
same,% Inhibition LmPTR1 (50 μM),[5],86.2%
same,IC50,[5],12.5 µM
B1,stoichiometry N,[7],4
B2,stoichiometry N,[8],4
